From patent US20190231771A1, “METHODS FOR TREATMENT AND PREVENTION OF OPIOID INDUCED CONSTIPATION USING ORAL COMPOSITIONS OF METHYLNALTREXONE” (Salix Pharmaceuticals, Ltd., priority 2011, published 2019)
“And” between values parts separate entries of the source, which are not always exact repeats. Equal values may be shown once. “Also recorded” adds a separate entry of the source. Read-outs that look alike come from different tables or passages of the source.

Key:
[1] = Yuan et al. 2005 J Clin Pharm 45:538-546; cited from earlier work
[2] = cited from earlier work
[3] = rats; cited from earlier work
[4] = Food effect study: single oral 450 mg MNTX fasted vs high-fat breakfast, 2-period crossover; assay type: in vivo, human; settings: for Cmax / half-life / AUC(0-inf) / AUC(0-t) / Tmax: both sexes, human, plasma, oral, 450 mg; for half-life: harmonic mean; for Tmax: median
Protocol: Presented herein is a single-dose, 2-period crossover study to evaluate the effect of a standard high-fat breakfast on the pharmacokinetics of a single oral dose of 450 mg (3×150 mg tablets) MNTX. The study had 2 arms and 2 dosing periods.
Thirty-two subjects were enrolled into this study. Subjects were randomized at a 1:1 ratio to Arm 1 (fasted then fed) or Arm 2 (fed then fasted). Randomization was stratified by sex. Each subject received a single dose of MNTX 450 mg (administered as 3×150 mg tablets) with a high fat meal (MNTX fed) and after fasting (MNTX fasted). The fasted/fed study periods were separated by 7 days. The sequence of fasted/fed or fed/fasted dosing on Days 1 and 8 was determined by randomization on Day 1.
For the fasted treatment, a single 450 mg (3×150 mg) oral dose of MNTX tablets was administered to subjects following a supervised overnight fast of at least 10 hours. No food was allowed for at least 4 hours post dose.
For the fed treatment, a standard high-fat breakfast was given to the subjects following an overnight fast of at least 10 hours. A single 450 mg (3×150 mg) oral dose of MNTX tablets was administered to subjects 30 minutes after the subject began the meal. No food was allowed for at least 4 hours after drug administration.
Subjects were administered a single oral dose of MNTX tablets (450 mg) on Day 1 and Day 8 after a high fat meal or fasting as follows: (a) MNTX 450 mg (orally as 3×150 mg tablets) administered after a high-fat (high caloric) breakfast, or (b) MNTX 450 mg (orally as 3×150 mg tablets) administered after fasting.
Subjects received a single dose of MNTX 450 mg administered orally as 3×150 mg tablets immediately after a high fat/high calorie meal (MNTX fed) and after fasting (MNTX fasted). A 7-day washout period separated the fasted/fed crossover periods. The sequence of fasted/fed or fed/fasting dosing on Days 1 and 8 was determined by randomization on Day 1. Subjects fasted overnight for a minimum of 10 hours prior to administration of a high fat meal with the single dose of study drug (MNTX fed) or 10 hours prior to administration of the single dose of study drug (MNTX fasted).
Each dose on Day 1 and 8 was administered with 240 mL of room temperature drinking water, and the subjects were instructed to drink all of the water. No food was permitted for 4 hours after drug administration and water was allowed as desired except for 1 hour before and after drug administration. Approximately 4 hours after dosing, a normal meal schedule could be resumed.
A high fat/high caloric meal includes fat content of approximately 50% of total calories in the meal (approximately 800 to 1000 calories total). Subjects receiving the MNTX fed treatment regimen were required to fast for at least 10 hours before breakfast and then to eat the protocol-specified breakfast starting 30 minutes before dosing. The high-fat, high caloric breakfast consisted of the following: • Two slices of toast with ½ pat of butter on each slice. • Two eggs fried in butter. • Two strips of bacon. • Four ounces (113 g) hash brown potatoes. • Eight ounces (240 mL) of whole milk.
Plasma concentrations of MNTX were determined using a validated analytical procedure involving high performance liquid chromatography with tandem quadrupole mass spectrometric detection. Blood samples for determination of MNTX concentrations in plasma were obtained predose (approximately 1 hour prior to dose administration) on Day 1, and at 0.25, 0.5, 1, 2, 4, 6, 8, 10, 12, 16, 24, 36, 48, 72, 96, 120, 144 and 168 hours following each dose administration on Days 1 and 8. Pharmacokinetic parameters that were measured and calculated include the following: […]

[5] = orally administered MNTX, other studies
[6] = 450 mg Single-Dose Fasted, mean

Question: For `C[N@+]1(CC2CC2)CC[C@]23c4c5ccc(O)c4O[C@H]2C(=O)CC[C@@]3(O)[C@H]1C5.[Br-]` [MNTX, (R)—N-(cyclopropylmethyl) noroxymorphone methobromide], which “dose recovered in urine following IV administration” value [1] is on record?
Answer: 31.5%-49.6%

Question: And the “bioavailability (in words)” value [2, 5]?
Answer: low bioavailability

Question: What about the “plasma protein binding (in words)” value [2, 5] of the same compound?
Answer: low plasma protein binding

Question: What about the “tissue distribution (in words)” value [2, 5] of the same compound?
Answer: limited tissue distribution outside the GI tract

Question: And the “increase of systemic absorption by fasting” value ([2]; prior study)?
Answer: approximately 25%

Question: What about the “estimated bioavailability after oral administration” value [3] of the same compound?
Answer: less than 1%

Question: What about the CL/F [4, 6] of the same compound?
Answer: 1608644 mL/h

Question: What about the λz [4, 6] of the same compound?
Answer: 0.04 h⁻¹ and 0.0403 h⁻¹

Question: And the CL/F ([4]; 450 mg Single-Dose Fed, mean)?
Answer: 2961340 mL/h

Question: What about the λz ([4]; 450 mg Single-Dose Fed, mean) of the same compound?
Answer: 0.04 h⁻¹ and 0.0413 h⁻¹

Question: What about the “AUC0-∞ Geometric Mean Ratio, fasted divided by fed” value ([4]; 450 mg single dose) of the same compound?
Answer: 198.17%

Question: And the “AUClast Geometric Mean Ratio, fasted divided by fed” value ([4]; 450 mg single dose)?
Answer: 199.28%

Question: And the “AUClast and AUC0-∞ higher in fasted as compared with fed subjects” value ([4]; 450 mg single dose)?
Answer: approximately 2 fold

Question: What about the “Cmax Geometric Mean Ratio, fasted divided by fed” value ([4]; 450 mg single dose) of the same compound?
Answer: 273.6% and 273.62%

Question: And the “arithmetic mean Cmax in fed subjects as share of that in fasted subjects” value ([4]; 450 mg single dose)?
Answer: ~28%

Question: What about the “decrease of systemic exposure by food (as determined by AUC and Cmax)” value ([4]; 450 mg single dose) of the same compound?
Answer: approximately half to three quarters

Question: And the “systemic exposure (AUClast and AUC0-∞) lower in fed than in fasted subjects” value ([4]; 450 mg single dose)?
Answer: approximately 50%

Question: And the “bioequivalence under fed and fasted conditions (80% to 125% range)” value ([4]; 450 mg single dose, Cmax, AUClast, AUC0-∞)?
Answer: nonbioequivalence; also recorded: non-bioequivalent; also recorded: not bioequivalent

Question: And the “deaths, SAEs, TEAEs resulting in study discontinuation” value ([4]; 450 mg single doses)?
Answer: no deaths, SAEs, or TEAEs resulting in study discontinuation

Question: What about the “effect on cardiac safety parameters or vital signs” value ([4]; 450 mg single doses) of the same compound?
Answer: No significant effect

Question: And the “intensity of TEAEs” value ([4]; 450 mg single doses)?
Answer: mild

Question: What about the “relation of TEAEs to MNTX (investigator)” value ([4]; 450 mg single doses) of the same compound?
Answer: No TEAEs were considered by the investigator to be related to MNTX

Question: And the “subjects with headache (most frequent TEAE)” value ([4]; 450 mg single doses, 32 subjects)?
Answer: 6%

Question: And the “subjects experiencing at least 1 TEAE” value ([4]; 450 mg single doses, 32 subjects, whole study)?
Answer: 16%

Question: And the Cmax ([4]; 450 mg Single-Dose Fasted, arithmetic mean, read-out: Cmax)?
Answer: 45.5 ng/mL

Question: What about the half-life ([4]; 450 mg Single-Dose Fasted) of the same compound?
Answer: ~17 h

Question: And the AUC(0-inf) ([4]; 450 mg Single-Dose Fasted, mean, read-out: AUC0-∞)?
Answer: 364 ng·h/mL

Question: And the AUC(0-t) ([4]; 450 mg Single-Dose Fasted, mean, read-out: AUClast)?
Answer: 361 ng·h/mL

Question: And the Tmax ([4]; 450 mg Single-Dose Fasted)?
Answer: 2 h

Question: And the Cmax ([4]; 450 mg Single-Dose Fed, arithmetic mean, read-out: Cmax)?
Answer: 12.9 ng/mL

Question: And the half-life ([4]; 450 mg Single-Dose Fed)?
Answer: ~17 h

Question: And the AUC(0-inf) ([4]; 450 mg Single-Dose Fed, mean, read-out: AUC0-∞)?
Answer: 169 ng·h/mL

Question: What about the AUC(0-t) ([4]; 450 mg Single-Dose Fed, mean, read-out: AUClast) of the same compound?
Answer: 166 ng·h/mL

Question: And the Tmax ([4]; 450 mg Single-Dose Fed)?
Answer: 4 h

Question: And the AUC(0-inf) ([4]; 450 mg single dose, Fasted, read-out: AUC0-∞, Geometric Least Squares Mean)?
Answer: 317 ng·h/mL

Question: What about the AUC(0-t) ([4]; 450 mg single dose, Fasted, read-out: AUClast, Geometric Least Squares Mean) of the same compound?
Answer: 314 ng·h/mL

Question: What about the Cmax ([4]; 450 mg single dose, Fasted, read-out: Cmax, Geometric Least Squares Mean) of the same compound?
Answer: 33.4 ng/mL

Question: What about the AUC(0-inf) ([4]; 450 mg single dose, Fed, read-out: AUC0-∞, Geometric Least Squares Mean) of the same compound?
Answer: 160 ng·h/mL

Question: And the AUC(0-t) ([4]; 450 mg single dose, Fed, read-out: AUClast, Geometric Least Squares Mean)?
Answer: 158 ng·h/mL

Question: What about the Cmax ([4]; 450 mg single dose, Fed, read-out: Cmax, Geometric Least Squares Mean) of the same compound?
Answer: 12.2 ng/mL

Question: What about the “subjects with TEAEs” value ([4]; fasted dosing period) of the same compound?
Answer: Four

Question: And the “subjects with TEAEs” value ([4]; fed dosing period)?
Answer: 3 subjects

Question: What about the tolerability ([4]; single dose of MNTX 450 mg) of the same compound?
Answer: well tolerated
